According to ChEMBL document CHEMBL5050833, “Novel cyclic trex1 inhibitors” (2020):

Species: Mus musculus
Test: Binding affinity to recombinant mouse TREX1 incubated in PBS and measured by thermal shift binding assay; further: test concentration or dose not given here

ΔTm [°C]	Compound
4	CC(C)C[C@H](C(=O)NCc1ccc(Cl)c(Cl)c1)N1CCC(CCc2ccccc2)N2C[C@H](N)C[C@H]2C1=O (stereo partly drawn)
4	N[C@@H]1C[C@H]2C(=O)N([C@H](CO)C(=O)NCc3ccc(Cl)c(Cl)c3)CCC(CCc3ccccc3)N2C1 (stereo partly drawn)
4	N[C@@H]1C[C@H]2C(=O)N([C@H](Cc3ccc(O)cc3)C(=O)NCc3ccc(Cl)c(Cl)c3)CCC(CCc3ccccc3)N2C1 (stereo partly drawn)

Species: Mus musculus
Test: Binding affinity to recombinant mouse TREX1 incubated in assay buffer and measured by thermal shift binding assay; further: test concentration or dose not given here

ΔTm [°C]	Compound
4	CC(C)C[C@H](C(=O)NCc1ccc(Cl)c(Cl)c1)N1CCC(CCc2ccccc2)N2C[C@H](N)C[C@H]2C1=O (stereo partly drawn)
4	N[C@@H]1C[C@H]2C(=O)N([C@H](CO)C(=O)NCc3ccc(Cl)c(Cl)c3)CCC(CCc3ccccc3)N2C1 (stereo partly drawn)
4	N[C@@H]1C[C@H]2C(=O)N([C@H](Cc3ccc(O)cc3)C(=O)NCc3ccc(Cl)c(Cl)c3)CCC(CCc3ccccc3)N2C1 (stereo partly drawn)

Species: Homo sapiens
Test: Binding affinity to recombinant human TREX1 incubated in PBS and measured by thermal shift binding assay; further: test concentration or dose not given here

ΔTm [°C]	Compound
> 8	CC(C)C[C@H](C(=O)NCc1ccc(Cl)c(Cl)c1)N1CCC(CCc2ccccc2)N2C[C@H](N)C[C@H]2C1=O (stereo partly drawn)
> 8	N[C@@H]1C[C@H]2C(=O)N([C@H](CO)C(=O)NCc3ccc(Cl)c(Cl)c3)CCC(CCc3ccccc3)N2C1 (stereo partly drawn)
> 8	N[C@@H]1C[C@H]2C(=O)N([C@H](Cc3ccc(O)cc3)C(=O)NCc3ccc(Cl)c(Cl)c3)CCC(CCc3ccccc3)N2C1 (stereo partly drawn)

Species: Homo sapiens
Test: Binding affinity to recombinant human TREX1 incubated in assay buffer and measured by thermal shift binding assay; further: test concentration or dose not given here

ΔTm [°C]	Compound
> 8	CC(C)C[C@H](C(=O)NCc1ccc(Cl)c(Cl)c1)N1CCC(CCc2ccccc2)N2C[C@H](N)C[C@H]2C1=O (stereo partly drawn)
> 8	N[C@@H]1C[C@H]2C(=O)N([C@H](CO)C(=O)NCc3ccc(Cl)c(Cl)c3)CCC(CCc3ccccc3)N2C1 (stereo partly drawn)
> 8	N[C@@H]1C[C@H]2C(=O)N([C@H](Cc3ccc(O)cc3)C(=O)NCc3ccc(Cl)c(Cl)c3)CCC(CCc3ccccc3)N2C1 (stereo partly drawn)

Tested on: not listed separately
Test: Inhibition of mouse TREX1 exonuclease activity using labeled DNA oligonucleotide as substrate incubated for 30 mins and measured after 45 mins by fluorescence assay

IC50 [µM]	Compound
< 1	CC(C)C[C@H](C(=O)NCc1ccc(Cl)c(Cl)c1)N1CCC(CCc2ccccc2)N2C[C@H](N)C[C@H]2C1=O (stereo partly drawn)
< 1	N[C@@H]1C[C@H]2C(=O)N([C@H](CO)C(=O)NCc3ccc(Cl)c(Cl)c3)CCC(CCc3ccccc3)N2C1 (stereo partly drawn)
< 1	N[C@@H]1C[C@H]2C(=O)N([C@H](Cc3ccc(O)cc3)C(=O)NCc3ccc(Cl)c(Cl)c3)CCC(CCc3ccccc3)N2C1 (stereo partly drawn)

Tested on: not listed separately
Test: Inhibition of human TREX1 exonuclease activity using labeled DNA oligonucleotide as substrate incubated for 30 mins and measured after 45 mins by fluorescence assay

IC50 [µM]	Compound
< 1	CC(C)C[C@H](C(=O)NCc1ccc(Cl)c(Cl)c1)N1CCC(CCc2ccccc2)N2C[C@H](N)C[C@H]2C1=O (stereo partly drawn)
< 1	N[C@@H]1C[C@H]2C(=O)N([C@H](CO)C(=O)NCc3ccc(Cl)c(Cl)c3)CCC(CCc3ccccc3)N2C1 (stereo partly drawn)
< 1	N[C@@H]1C[C@H]2C(=O)N([C@H](Cc3ccc(O)cc3)C(=O)NCc3ccc(Cl)c(Cl)c3)CCC(CCc3ccccc3)N2C1 (stereo partly drawn)
